The values below come from paper PMC11830387, “KIRA6 is an Effective and Versatile Mast Cell Inhibitor of IgE‐mediated Activation” (European Journal of Immunology, 2024).

The target of test [1] is T1, LYN (Homo sapiens, UniProt P07948).
T1 construct: recombinant human active protein kinase LYN (ProQinase, #0358-0000-1)
Description: MicroScale thermophoresis, supported by nanoDSF thermal shift. In kind it is binding. For orientation: In MST a laser heats a spot of the sample, and binding alters the fluorescence response.

The target in the next test is T2, FYN (Homo sapiens, UniProt P06241).
T2 construct: recombinant human active protein kinase FYN (ProQinase, #0352-0000-1)
Description: MicroScale thermophoresis, supported by nanoDSF. In kind it is binding.

The target in test [2] is T3, LYN (Mus musculus, UniProt P25911).
T3 construct: LYN immunoprecipitated from unstimulated BMMCs
The experiment in a line: in vitro kinase assay with immunoprecipitated LYN and GST-SH3P7 substrate. In kind it is biochemical.

T2 sequence (P06241 2-537): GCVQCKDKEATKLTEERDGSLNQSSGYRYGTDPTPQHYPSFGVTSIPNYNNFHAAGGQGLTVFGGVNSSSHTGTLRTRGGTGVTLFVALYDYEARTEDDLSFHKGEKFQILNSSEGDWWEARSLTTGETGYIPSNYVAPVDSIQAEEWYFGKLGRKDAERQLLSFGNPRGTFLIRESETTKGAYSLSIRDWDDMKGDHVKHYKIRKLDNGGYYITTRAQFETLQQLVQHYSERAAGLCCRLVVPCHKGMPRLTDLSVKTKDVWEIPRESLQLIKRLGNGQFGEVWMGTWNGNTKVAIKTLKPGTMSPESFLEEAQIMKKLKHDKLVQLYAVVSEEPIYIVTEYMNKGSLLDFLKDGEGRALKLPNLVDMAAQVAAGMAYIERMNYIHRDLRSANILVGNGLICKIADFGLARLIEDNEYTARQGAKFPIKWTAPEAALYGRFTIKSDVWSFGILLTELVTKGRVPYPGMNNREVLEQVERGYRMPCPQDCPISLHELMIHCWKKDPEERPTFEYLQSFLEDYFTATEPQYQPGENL
T1 sequence (P07948 2-512): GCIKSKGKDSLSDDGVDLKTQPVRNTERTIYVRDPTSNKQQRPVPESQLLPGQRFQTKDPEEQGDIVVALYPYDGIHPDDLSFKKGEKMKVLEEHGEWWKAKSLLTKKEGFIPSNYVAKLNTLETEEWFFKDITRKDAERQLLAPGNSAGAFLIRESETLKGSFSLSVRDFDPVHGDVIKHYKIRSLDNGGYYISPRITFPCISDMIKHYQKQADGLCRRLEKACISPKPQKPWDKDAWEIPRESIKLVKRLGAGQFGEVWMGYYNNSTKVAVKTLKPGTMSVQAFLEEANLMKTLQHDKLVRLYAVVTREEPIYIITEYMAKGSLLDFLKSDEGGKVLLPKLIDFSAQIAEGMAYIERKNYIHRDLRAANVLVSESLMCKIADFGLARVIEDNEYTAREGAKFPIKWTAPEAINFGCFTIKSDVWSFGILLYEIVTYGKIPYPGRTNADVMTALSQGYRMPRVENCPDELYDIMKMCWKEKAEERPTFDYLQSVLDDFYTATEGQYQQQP
T3 sequence (P25911 2-512): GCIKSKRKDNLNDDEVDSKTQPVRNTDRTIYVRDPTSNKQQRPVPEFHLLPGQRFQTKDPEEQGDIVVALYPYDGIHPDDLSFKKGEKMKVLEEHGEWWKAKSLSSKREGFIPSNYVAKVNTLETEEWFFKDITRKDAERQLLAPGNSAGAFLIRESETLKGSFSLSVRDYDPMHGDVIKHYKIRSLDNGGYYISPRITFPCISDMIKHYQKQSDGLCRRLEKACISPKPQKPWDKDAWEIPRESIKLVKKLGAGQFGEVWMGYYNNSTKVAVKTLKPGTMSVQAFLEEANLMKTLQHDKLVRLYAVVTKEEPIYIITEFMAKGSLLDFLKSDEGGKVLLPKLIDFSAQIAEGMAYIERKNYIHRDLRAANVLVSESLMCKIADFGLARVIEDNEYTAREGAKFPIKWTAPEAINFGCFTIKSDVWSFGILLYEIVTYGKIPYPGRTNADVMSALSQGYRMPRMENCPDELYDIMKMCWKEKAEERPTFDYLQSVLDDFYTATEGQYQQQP

For the compound `CC(C)(C)c1nc(-c2ccc(NC(=O)Nc3cccc(C(F)(F)F)c3)c3ccccc23)c2c(N)nccn12` [KIRA6], the Kd at LYN [1] was 3.2 ± 1.2 µM; at FYN it was 8.4 ± 2.6 µM. The same compound gave an IC50 at LYN [2] of around 0.3 µM.

By Kd is commonly meant the constant that tells how readily two partners part at equilibrium. A word on the IC50: it is the concentration at which inhibition is half-maximal. The low end stands for inhibition by little substance, the high end for a need for much substance.
